Among the data in patent US20120095036A1, “NOVEL SUBSTITUTED INDAZOLE AND AZA-INDAZOLE DERIVATIVES AS GAMMA SECRETASE MODULATORS” (priority 2009, published 2012) are IC50 values, retold here.

Holding throughout (assay type): cell-based
The test system of assay [1] is Aβtotal. Description: Method 2: Aβtotal Alphalisa on supernatant of SKNBE2 cells carrying APP 695 wild type. The conditions noted are these: Homo sapiens, SKNBE2 cells APP 695 wild type, overnight. Put shortly: (§1)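 SKNBE2 cells expressing wild-type APP695 (10^4/well) were incubated overnight at 37 °C with compound at several concentrations. Secreted Aβ42 (C-terminal/N-terminal antibody pair) and Aβtotal (N-terminal/4G8 pair) were measured by AlphaLISA in the supernatant. IC50 values came from 4-parameter fits of percent of untreated control.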

Assay [2] has as its system Aβ42. Description: Method 1: Aβ42 sandwich ELISA on media of SKNBE2 cells carrying APP 695 wild type (γ-secretase-modulating activity). The settings on record: Homo sapiens, SKNBE2 cells APP 695 wild type, 18 hours. The procedure, abridged:
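SKNBE2 cells expressing wild-type APP695 exposed to compounds for 18 h in Ultraculture with 1% glutamine. Secreted Aβ42 in media quantified by sandwich ELISA (C-terminal capture, biotinylated 3D6 detection, TMB, 450 nm). IC50 from 4-parameter fit, top/bottom fixed 100/0, Hill slope fixed 1; toxicity checked by WST-1.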

The test system of assay [3] is Aβ42. Description: Method 2: Aβ42 Alphalisa on supernatant of SKNBE2 cells carrying APP 695 wild type. The settings on record: Homo sapiens, SKNBE2 cells APP 695 wild type, overnight. The procedure, abridged: as §1

Where only a bound is given, the exact number is not on record here.

Take `COc1cc(Nc2cccc3cn(CC4CC4)nc23)ccc1-c1cnc(C)o1.Cl` [Compound 38, 2-(cyclopropylmethyl)-N-[3-methoxy-4-(2-methyl-5-oxazolyl)phenyl]-2H-indazol-7-amine HCl]: the IC50 was 4680 nM in assay [1], 518 nM in assay [2] and 234 nM in assay [3].
Turning to `COc1cc(Nc2cccc3cn(CC(F)(F)F)nc23)ccc1-c1cnc(C)o1` [Compound 6, N-[3-methoxy-4-(2-methyl-5-oxazolyl)phenyl]-2-(2,2,2-trifluoroethyl)-2H-indazol-7-amine], the IC50 in assay [1] turned out to be 3980 nM; in assay [2], 152 nM; in assay [3], 162 nM.
Turning to `COc1cc(Nc2cccc3cn(Cc4ccc(F)cc4)nc23)ccc1-n1cnc(C)c1` [Compound 15, 2-[(4-fluorophenyl)methyl]-N-[3-methoxy-4-(4-methyl-1H-imidazol-1-yl)phenyl]-2H-indazol-7-amine], the IC50 came out at 6610 nM in assay [1], 75 nM in assay [2] and 14 nM in assay [3].
For `COc1cccc(-n2cc3cccc(Nc4ccc(-n5cnc(C)c5)c(OC)c4)c3n2)c1` [Compound 1, N-[3-methoxy-4-(4-methyl-1H-imidazol-1-yl)phenyl]-2-(3-methoxyphenyl)-2H-indazol-7-amine], in that order: 8320 nM, 46 nM and 81 nM.
Regarding `COc1cccc(-n2nc3c(Nc4ccc(-n5cnc(C)c5)c(OC)c4)cccc3c2C)c1` [Compound 2, N-[3-methoxy-4-(4-methyl-1H-imidazol-1-yl)phenyl]-2-(3-methoxyphenyl)-3-methyl-2H-indazol-7-amine], the IC50 worked out at 6460 nM in assay [1], 7 nM in assay [2] and 7 nM in assay [3].
For `COc1cccc(-n2nc3c(Nc4ccc(-c5cnc(C)o5)c(OC)c4)nccc3c2C)c1` [Compound 42, N-[3-methoxy-4-(2-methyl-5-oxazolyl)phenyl]-2-(3-methoxyphenyl)-3-methyl-2H-pyrazolo[3,4-c]pyridin-7-amine], the values for the IC50 in assay [1], in assay [2] and in assay [3] were 4360 nM, 91 nM and 120 nM, respectively.
In the case of `COc1cccc(-n2nc3c(Nc4ccc(-c5cnc(C)o5)cc4)cccc3c2C)c1` [Compound 29, 2-(3-methoxyphenyl)-3-methyl-N-[4-(2-methyl-5-oxazolyl)phenyl]-2H-indazol-7-amine], the IC50 was > 10000 nM in assay [1], 28 nM in assay [2] and 15 nM in assay [3].
